Data as given in paper PMC10885103, “Deciphering the Synthetic and Refolding Strategy of a Cysteine-Rich Domain in the Tumor Necrosis Factor Receptor (TNF-R) for Racemic Crystallography Analysis and D-Peptide Ligand Discovery” (ACS Bio & Med Chem Au, 2023).
Where no end group is shown, it is not given here.

Columns and labels:
[1] = test system: D-TNFR-1 CRD2; test: Mirror-image phage display against D-TNFR-1 CRD2; format: binding; conditions: after three rounds of biopanning, D-TNFR-1 CRD2 3 μg on streptavidin/neutravidin beads
Excerpt: The receptor mimic was subjected to mirror-image molecular screening as a means of seeking ligands that inhibit TNF-α binding. […] A D-peptide inhibitor could be potentially tested as a candidate against TNFR-1-related inflammatory diseases localized in the protease-rich gastrointestinal tract.[10b],[20] Consequently, the D-TNFR-1 CRD2 serves as a receptor mimic in mirror-image phage display (MIPD), a molecular screening technique that exploits the concept of reflection symmetry for the discovery of peptide ligands in opposite chirality.[5b] To conduct the experiment, D-TNFR-1 CRD2 was biotinylated at the C-terminus, immobilized onto streptavidin-coated beads, and subjected to phage display. Subsequently, bacteriophage libraries[21] consisted of the sequence format CX9C where X could be any canonical amino acid and terminal cysteine residues used for cyclization were tested. […] This was confirmed by an additional phage display experiment, in which the WLG motif was fixed in the format CX4WLGX2C.
The peptides were linked to the gene-3 coat protein (pIII) via a trialanine (Ala-Ala-Ala) spacer. Gel purified DNA encoding the libraries were ligated into the pCantab 5E phagemid vector, and transformed into chemically competent E. coli TG1. 20-fold excess of helper phage M13KO7 was used during rescue and amplification of the bacteriophages. […]

[2] = test system: D-TNFR-1 CRD2; test: GCI (RAPID, repeated analyte pulses of increasing duration) of TCPB-E isomers on D-TNFR-1 CRD2; format: binding; conditions: fixed concentration of each conformer, D-TNFR-1 CRD2, blank subtracted
Procedure: (§1) Grating-coupled interferometry (GCI) experiments were performed on a Creoptix WAVEsystem using 4PCH-STA WAVE sensor chips (polycarboxylate surface, streptavidin coated) or 4PCH WAVE sensor chips (polycarboxylate surface) as indicated. Chips were first conditioned with borate buffer (0.1 M sodium borate, pH 9, 1 M Sodium chloride).
S4. Identification of active binding peptide conformer
Figure S4.1: Six possible conformers of TCPB, oxidized with either glutathione (TCPB-E-G) or cysteine […]
TCPB solution phase oxidation […]
form. In a 10 mL round bottomed flask, the peptide (50 μM) was dissolved in 5 mL of buffer (0.1 M phosphate, pH 6) containing 0.5 mM of either cystine or glutathione. The reaction mixtures were stirred for six hours at room temperature. Reaction completion was confirmed by LCMS, by taking 10 μL of reaction mixture and diluting with 90 μL of distilled water. The two disulfide bonded products for each cysteine and glutathione mixture were isolated by semi-preparative HPLC.
(§2) (1 picture or pasted object on this page, not shown here)
Figure S4.6: LCMS disulfide bond mapping of isolated TCPB-E peak i, oxidized with glutathione disulfide.
Lyophilized peptide was digested with chymotypsin (0.1 mg/mL) in phosphate buffer ( 0.1 M, pH 6) at room temperature for 12 hours. […]

[3] = test system: D-TNFR-1 CRD2; test: GCI single-cycle binding of TCPB-E-C1 and -C4 isomers to D-TNFR-1 CRD2; conditions: single cycle of association and dissociation, 50 μM of each peptide conformer, blank subtracted
Procedure: as §1
Figure S4.10: Grating-coupled interferometry (GCI) analysis of TCPB-E-C1 and -C4 isomers binding to
D-TNFR-1 CRD2. A single cycle of association and dissociation were passed over the sensor surface, with
μM of each peptide conformer. Sensograms shown are blank subtracted (target flow cell - flow cell with 50
TCPB-E-C4. The TCPB-E-C1 conformer was thus identified as the active form of the TCPB peptide.
as §2

## CFHCIWLGDEC
[1]; CX4WLGX2C library
  phage display selection outcome, experiment 2: most abundant peptide sequence

## CFHCIWLGDEC (disulfide (positions not given here)) [TCPB, intramolecular disulfide bond between residues 4–11, cysteinylated at position 1]
[2]
  sensor response with respect to concentration among TCPB-E isomers: highest sensor response
[3]
  sensor response/binding of TCPB-E isomers to D-TNFR-1 CRD2: highest sensor response

## CFHCVWLGMEC
[1]; CX9C library
  phage display selection outcome, experiment 1: enriched
